How the values were obtained:
[1] = Acute toxicity, oral, LD50 (Litchfield and Wilcoxon); conditions: mouse, in vivo, fasted male mice, confidence limits p=95% in brackets
Description: (1) The acute toxicity was determined on fasted male mice. The tested substances were orally administered and LD50 values (lethal dose for 50% of animals) were calculated according to the method of Litchfield and Wilcoxon (J. Pharmacol. exp. Ther. 96, 94-113, 1949). These LD50 values are given in mg/kg and also, when possible, with their confidence limits for p=95%.

[2] = test system: unanaesthetized, hypertension-suffering rat; test: Antihypertensive activity (systolic arterial pressure), oral; format: in vivo; conditions: 60 mg/kg, hypertensive rat, 3 hours
Procedure, shortened: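 Conscious hypertensive rats given compound orally at 60 mg/kg; systolic arterial pressure measured every 30 min for 2 h pre-dose and 3 h post-dose. Scored O (no fall), + (<10 mm Hg), ++ (10–20 mm Hg), +++ (>20 mm Hg).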

femoral artery = test: Vasodilator activity, femoral artery (technique of perfused paw); format: in vivo; design: key: O: no action; +: slight activity; ++: effect equal to half the effect of papaverine; +++: effect equal to that of papaverine; ++++: effect higher than that of papaverine; conditions: intra-arterial, 30 mg/kg, anaesthetized dog, vs papaverine at same dose
Description: (3) The vasodilator activity was measured at the level of femoral artery on anaesthetized dog (technique of perfused paw). The tested substances were given intra-arterially at the rate of 30 mg/kg. Results are expressed with respect to papaverine tested at the same dose.
++: effect equal to half the effect of papaverine.
+++: effect equal to that of papaverine.
++++: effect higher than that of papaverine.

[3] = test system: guinea-pig ileum (histamine contractions); test: Antispasmodic activity in vitro, contractions caused by histamine; conditions: added 15 minutes before spasm-producing agent
Description: (§1) (4) The antispasmodic activity was measured in vitro, on guinea-pig ileum, the contractions of which were caused by histammne (Hist.), acetylcholine (Achol) or barium chloride (BaCl2). The tested products were added to perfusion bath 15 minutes before the spasm-producing agents.
(§2) The dose is given in micograms (μg) per ml of bath causing complete spasm inhibition.

[4] = test system: guinea-pig ileum (acetylcholine contractions); test: Antispasmodic activity in vitro, contractions caused by acetylcholine; conditions: added 15 minutes before spasm-producing agent
Description: as §1, §2

Structure (SMILES)	LD50 [1] [mg/kg]	ANTIHYPERTENSIVE ACTIVITY [2]	VASODILATOR ACTIVITY (femoral artery)	ANTISPASMODIC ACTIVITY HIST. (dose causing complete spasm inhibition) [3] [μg per ml]	ANTISPASMODIC ACTIVITY ACHOL (dose causing complete spasm inhibition) [4] [μg per ml]
CC(NCCCCc1ccccc1)C(O)c1ccc2c(c1)SCCS2 (stereo not drawn) [No 100]	> 2000	+++ (reduction higher than 20 mm Hg)	++++	8.3	1.7
CC(NCCCC(=O)c1ccc(F)cc1)C(O)c1ccc2c(c1)CCCS2 (stereo not drawn) [No 102]	> 4000	+++ (reduction higher than 20 mm Hg)	++	0.8	0.3
CC1Cc2cc(C(O)C(C)NCCCC(=O)c3ccc(F)cc3)ccc2O1 (stereo not drawn) [No 105]	~360	+++ (reduction higher than 20 mm Hg)	+++	3.3	3.3
CC1Cc2cc(C(O)C(C)NCCSc3ccccc3)ccc2S1 (stereo not drawn) [No 106]	> 4000	++ (reduction of 10 to 20 mm Hg)	+++	1.7	1.7
CCC(=O)c1ccc(OCCNC(C)C(O)c2ccc3c(c2)CCS3)cc1 (stereo not drawn) [No 108]	> 4000	++ (reduction of 10 to 20 mm Hg)	+++	0.8	3.3
CC1CSc2ccc(C(O)C(C)NCCCCc3ccccc3)cc21 (stereo not drawn) [No 109]	~2750	+++ (reduction higher than 20 mm Hg)	+++	0.17	0.8
CC(NCCCC(=O)c1ccc(F)cc1)C(O)c1ccc2c(c1)CCS2 (stereo not drawn) [No 111]	~700	++ (reduction of 10 to 20 mm Hg)	+++	0.3	0.8
CCC(NCCCCc1ccccc1)C(O)c1ccc2c(c1)CCS2 (stereo not drawn) [No 115]	~2500	+++ (reduction higher than 20 mm Hg)	+++	0.8	1.7
CCC(=O)c1ccc(OCCNC(C)C(O)c2ccc3c(c2)CC(C)S3)cc1 (stereo not drawn) [No 116]	> 4000	++ (reduction of 10 to 20 mm Hg)	++	0.17	3.3
CC(C)C(=O)OC(c1ccc2c(c1)CCS2)C(C)NCCCCc1ccccc1 (stereo not drawn) [No 117]	2200	+++ (reduction higher than 20 mm Hg)	++++	1.7	0.8
CCC(=O)OC(c1ccc2c(c1)CCS2)C(C)NCCCCc1ccccc1 (stereo not drawn) [No 118]	2020	+++ (reduction higher than 20 mm Hg)	++	0.8	1.7
CC(NCCCCc1ccccc1)C(O)c1ccc2c(c1)CCC2 (stereo not drawn) [No 163]	800	+++ (reduction higher than 20 mm Hg)	++	1.7	0.8
